pEC50, pIC50: −log10 of the molar value.
Columns and labels:
[1] = biological target: WRN (BV08), human Werner helicase (Uniprot Q14191, amino acids 517-1235 with L1074F point mutation) (Homo sapiens (Human), UniProt Q14191, L1074F); assay: WRN (BV08) ADP-Glo assay; assay type: biochemical; settings: class symbols A-E, read-out: ADP-Glo_hWRN_IC50
[2] = test system: p21 induction in HCT116 cells; assay: p21 induction in HCT116 cells; assay type: cell-based; settings: Homo sapiens, HCT-116, 24 h, HCT116 cells, 24 h compound incubation; read-out: P21_EC50
Summary of the method: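 HCT116 cells, 2,000/well, treated 24 h at 37 °C with 11-point compound dilutions in duplicate. Fixed, then immunostained for p21 and GAPDH and read by near-IR imaging at 800/700 nm. Normalized to DMSO (low) and reference WRN inhibitor (high) controls; EC50 from non-linear regression.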

Chain of WRN (BV08), human Werner helicase (Uniprot Q14191, amino acids 517-1235 with L1074F point mutation) (Q14191 other isoform, or with tags, fused parts or gaps L1074F (already in the parent)): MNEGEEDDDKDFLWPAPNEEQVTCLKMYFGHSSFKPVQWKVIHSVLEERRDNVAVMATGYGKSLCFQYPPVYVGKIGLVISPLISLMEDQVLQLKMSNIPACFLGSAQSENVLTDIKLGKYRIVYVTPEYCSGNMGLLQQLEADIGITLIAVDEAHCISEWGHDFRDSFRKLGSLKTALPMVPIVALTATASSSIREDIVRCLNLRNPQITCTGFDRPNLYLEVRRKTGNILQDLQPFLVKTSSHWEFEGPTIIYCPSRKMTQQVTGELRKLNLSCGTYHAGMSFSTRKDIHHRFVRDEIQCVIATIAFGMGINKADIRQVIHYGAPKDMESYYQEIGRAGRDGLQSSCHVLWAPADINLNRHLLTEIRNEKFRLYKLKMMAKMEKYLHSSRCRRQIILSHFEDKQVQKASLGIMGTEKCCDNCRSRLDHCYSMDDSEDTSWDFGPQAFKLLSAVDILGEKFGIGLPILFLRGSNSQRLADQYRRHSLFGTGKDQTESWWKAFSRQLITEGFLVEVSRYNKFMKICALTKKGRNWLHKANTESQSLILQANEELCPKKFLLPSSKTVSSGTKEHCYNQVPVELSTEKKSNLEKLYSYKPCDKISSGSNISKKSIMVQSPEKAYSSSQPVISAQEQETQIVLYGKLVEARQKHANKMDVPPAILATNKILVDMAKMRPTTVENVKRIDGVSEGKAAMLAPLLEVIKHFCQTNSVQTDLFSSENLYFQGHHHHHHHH

Row | pIC50 [1] | pEC50 [2] | Compound
1 | 7.30 to 8.30 | > 6.30 | CCc1c(N2CCN(C(=O)c3ncnc(C)c3O)[C@H]3CC[C@@H]32)c(=O)c2nc(N(C)C3CCC3O)cnc2n1CC(=O)Nc1ccc(C(F)(F)F)cc1Cl (stereo partly drawn) [I-293, N-[2-chloro-4-(trifluoromethyl)phenyl]-2-{6-ethyl-7-[(1S,6S)-5-(5-hydroxy-6-methylpyrimidine-4-carbonyl)-2,5-diazabicyclo[4.2.0]octan-2-yl]-2-[(2-hydroxycyclobutyl)(methyl)amino]-8-oxo-5H,8H-pyrido[2,3-b]pyrazin-5-yl}acetamide]
2 | 7.30 to 8.30 | > 6.30 | CCc1c(N2CCN(C(=O)c3ncnc(C)c3O)[C@H]3CC[C@@H]32)c(=O)c2nc(N(C)[C@H]3CC[C@H](O)C3)cnc2n1CC(=O)Nc1ccc(C(F)(F)F)cc1Cl [I-299, N-[2-chloro-4-(trifluoromethyl)phenyl]-2-{6-ethyl-7-[(1S,6S)-5-(5-hydroxy-6-methylpyrimidine-4-carbonyl)-2,5-diazabicyclo[4.2.0]octan-2-yl]-2-{[(1S,3S)-3-hydroxycyclopentyl](methyl)amino}-8-oxo-5H,8H-pyrido[2,3-b]pyrazin-5-yl}acetamide]

The remaining lines, values behind:

Row | Compound | pIC50 [1] | pEC50 [2]
3 | CCc1c(N2CCN(C(=O)c3ncnc(C)c3O)[C@H]3CC[C@@H]32)c(=O)c2nc(N(C)[C@@H]3CC[C@H](O)C3)cnc2n1CC(=O)Nc1ccc(C(F)(F)F)cc1Cl [I-300, N-[2-chloro-4-(trifluoromethyl)phenyl]-2-{6-ethyl-7-[(1S,6S)-5-(5-hydroxy-6-methylpyrimidine-4-carbonyl)-2,5-diazabicyclo[4.2.0]octan-2-yl]-2-{[(1R,3S)-3-hydroxycyclopentyl](methyl)amino}-8-oxo-5H,8H-pyrido[2,3-b]pyrazin-5-yl}acetamide] | 7.30 to 8.30 | > 6.30
4 | CCc1c(N2CCN(C(=O)c3ncnc(C)c3O)[C@H]3CC[C@@H]32)c(=O)c2nc(N(C)[C@@H]3CC[C@@H](O)C3)cnc2n1CC(=O)Nc1ccc(C(F)(F)F)cc1Cl [I-301, N-[2-chloro-4-(trifluoromethyl)phenyl]-2-{6-ethyl-7-[(1S,6S)-5-(5-hydroxy-6-methylpyrimidine-4-carbonyl)-2,5-diazabicyclo[4.2.0]octan-2-yl]-2-{[(1R,3R)-3-hydroxycyclopentyl](methyl)amino}-8-oxo-5H,8H-pyrido[2,3-b]pyrazin-5-yl}acetamide] | 7.30 to 8.30 | > 6.30
5 | CCc1c(N2CCN(C(=O)c3ncnc(C)c3O)[C@H]3CC[C@@H]32)c(=O)c2nc(N(C)[C@H]3CC[C@@H](O)C3)cnc2n1CC(=O)Nc1ccc(C(F)(F)F)cc1Cl [I-302, N-[2-chloro-4-(trifluoromethyl)phenyl]-2-{6-ethyl-7-[(1S,6S)-5-(5-hydroxy-6-methylpyrimidine-4-carbonyl)-2,5-diazabicyclo[4.2.0]octan-2-yl]-2-{[(1S,3R)-3-hydroxycyclopentyl](methyl)amino}-8-oxo-5H,8H-pyrido[2,3-b]pyrazin-5-yl}acetamide] | 7.30 to 8.30 | > 6.30

Reference: US20250034136A1 (Nimbus Wadjet, Inc., priority 2023, published 2025)
